Assay results published in US20210100859A1, “HERPES SIMPLEX VIRUS (HSV) ANTICANCER THERAPIES” (priority 2019, published 2021).

Legend:
TR127 cells = experiment: Virus spread: GFP+ RAMBO infected cells by flow cytometry; type: cell-based, human; details: TR127, RAMBO MOI=0.1 1 hr then CP 2 μM 16 hr; presence vs absence of CP
Method: FIGS. 1A-1J: RAMBO increases cisplatin accumulation in cisplatin-resistant ovarian cancer cells. (FIG. 1A) Representative histogram (left) and quantification (right) of percentage of GFP^+ infected cisplatin resistant ovarian cancer cells. TR127 cells infected with RAMBO (MOI=0.1) for 1 hr and then treated with CP (2 μM) for 16 hr. Data shown are mean percentage of GFP^+ RAMBO infected TR127 cells (±s.d) analyzed by flow cytometry (n=3/group). (FIG. 1B) Quantification of intracellular CP retained inside platin resistant OC cells treated with/without RAMBO. OVCAR8, TR127 and TR182 were treated with/without RAMBO (MOI=0.1) for one hour and then incubated with 2.5 μM Texas-red labeled CP. Twenty-four hours post-infection CP accumulation in cells was analyzed by flow cytometry. Data shown are mean fluorescence intensity (MFI) of Texas-red labeled CP (±s.d., n=3/group). […] Briefly, RNA harvested from OVTOKO cells treated with RAMBO (MOI=1) for 16 hr was analyzed by RNAseq. […] (FIG. 1I) Quantification of Texas-red labeled CP accumulation in TR127 cells knocked down for either ATP7B, ATP11B, or both was analyzed by flow cytometry (n=3/group). (FIG. 1J) Quantification of Texas-red labeled CP accumulation in OVTOKO cells overexpressing (OE) both ATP11B and ATP7B, or control (Ctl). Cells were analyzed by flow cytometry. […]

ATP11B and ATP7B = experiment: Western blot of efflux proteins; type: cell-based, human; details: TR127 and TR182 cells treated with RAMBO and/or CP

N.N.[Cl][Pt][Cl] [CP, cisplatin]
GFP expression (GFP positive tumor cells as indicator of infection) (TR127 cells): no difference
protein expression of ATP11B and ATP7B (ATP11B and ATP7B): no effect
